The text below walks through data of ChEMBL document CHEMBL4715885, “Novel dual LSD1/HDAC6 inhibitors for the treatment of multiple myeloma” (Bioorg Med Chem Lett, 2021).

Series [1] has as its target T1, Lysine-specific histone demethylase 1A (Homo sapiens, UniProt O60341). The experiment in a line: Inhibition of LSD1 in human MM1.S cells assessed as modulation of c-Myc mRNA expression at 0.5 uM after 6 to 24 hrs by qRT-PCR analysis. Format: cell-based. Particulars: time lower 6.0 hrs, time upper […]. For orientation: Real-time PCR tracks product formation cycle by cycle.

Series [2] has as its target Histone deacetylase 1 (Homo sapiens) (UniProt Q13547). The experiment in a line: Inhibition of human HDAC1 at 1uM using RHKKAc as substrate by fluorescence method relative to control.
For series [3], the target named is T2, Protein deacetylase HDAC6 (Homo sapiens) (UniProt Q9UBN7).
T2 sequence (whole entry): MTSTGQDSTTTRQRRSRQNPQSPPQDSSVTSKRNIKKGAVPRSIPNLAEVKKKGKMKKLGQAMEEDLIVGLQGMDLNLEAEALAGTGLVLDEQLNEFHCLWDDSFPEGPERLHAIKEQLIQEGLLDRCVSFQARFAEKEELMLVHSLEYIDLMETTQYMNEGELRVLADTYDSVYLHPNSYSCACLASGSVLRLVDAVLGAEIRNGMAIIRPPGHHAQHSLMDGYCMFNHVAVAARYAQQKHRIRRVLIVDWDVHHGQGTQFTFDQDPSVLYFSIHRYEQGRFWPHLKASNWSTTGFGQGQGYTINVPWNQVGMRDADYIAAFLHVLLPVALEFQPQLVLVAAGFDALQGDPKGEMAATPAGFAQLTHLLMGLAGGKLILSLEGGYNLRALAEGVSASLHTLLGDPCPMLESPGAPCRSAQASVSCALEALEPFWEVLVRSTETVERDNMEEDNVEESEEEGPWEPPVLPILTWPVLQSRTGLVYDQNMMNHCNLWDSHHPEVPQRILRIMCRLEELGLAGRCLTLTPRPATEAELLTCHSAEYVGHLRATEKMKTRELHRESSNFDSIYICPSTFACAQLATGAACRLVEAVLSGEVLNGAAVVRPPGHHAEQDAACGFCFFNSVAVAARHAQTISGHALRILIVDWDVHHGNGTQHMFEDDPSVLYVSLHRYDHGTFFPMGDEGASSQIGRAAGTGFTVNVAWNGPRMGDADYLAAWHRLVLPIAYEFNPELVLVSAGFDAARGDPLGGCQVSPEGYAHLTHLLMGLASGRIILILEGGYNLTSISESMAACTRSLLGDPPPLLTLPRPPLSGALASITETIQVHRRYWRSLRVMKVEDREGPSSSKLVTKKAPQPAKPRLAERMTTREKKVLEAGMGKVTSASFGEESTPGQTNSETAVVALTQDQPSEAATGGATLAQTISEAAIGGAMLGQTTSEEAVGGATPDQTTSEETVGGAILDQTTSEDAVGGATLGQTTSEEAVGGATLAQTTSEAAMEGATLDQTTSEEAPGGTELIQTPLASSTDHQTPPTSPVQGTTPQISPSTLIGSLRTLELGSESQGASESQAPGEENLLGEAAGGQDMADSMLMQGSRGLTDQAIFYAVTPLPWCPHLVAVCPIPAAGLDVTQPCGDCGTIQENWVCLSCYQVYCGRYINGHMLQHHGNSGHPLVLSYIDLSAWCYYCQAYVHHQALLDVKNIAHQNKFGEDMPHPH
Put plainly: Inhibition of HDAC6 in human MM1.S cells assessed as modulation alpha-tubulin acetylation at 100 to 500 nM after 1 to 3 hrs by Western blot analysis. Format: cell-based. Particulars: dose 100-500 nM, time 1-3 hrs. Background: In western blotting, separated proteins are transferred to a membrane and probed.

Series [4] concerns the target T2, Protein deacetylase HDAC6 (Homo sapiens). Put plainly: Inhibition of HDAC6 in human MM1.S cells assessed as modulation of c-Myc mRNA expression at 0.5 uM after 6 to 24 hrs by qRT-PCR analysis. Format: cell-based. Particulars: time lower 6.0 hrs, time upper […].
Series [5] concerns the target T1, Lysine-specific histone demethylase 1A. Put plainly: Inhibition of LSD1 in human MM1.S cells assessed as modulation of p21 mRNA expression at 0.5 uM after 6 to 24 hrs by qRT-PCR analysis. Format: cell-based. Particulars: time lower 6.0 hrs, time upper […].
Series [6] shares this target. The experiment in a line: Inhibition of LSD1 in human MM1.S cells assessed as modulation alpha-tubulin acetylation at 100 to 500 nM after 1 to 3 hrs by Western blot analysis. Format: cell-based. Particulars: dose 100-500 nM, time 1-3 hrs.
The target of series [7] is T2, Protein deacetylase HDAC6 (Homo sapiens). The experiment in a line: Inhibition of HDAC6 in human MM1.S cells assessed as modulation of p21 mRNA expression at 0.5 uM after 6 to 24 hrs by qRT-PCR analysis. Format: cell-based. Particulars: time lower 6.0 hrs, time upper […].
Series [8] can be described thus: Stability in mouse liver microsomes assessed as parent compound remaining measured after 30 mins. In kind it is ADME, Microsome. Particulars: liver microsomes, read-out: Stabilty.
The subject of series [9] is MM1.S. Put plainly: Antiproliferative activity against human MM1.S cells assessed as reduction in cell viability after 144 hrs. In kind it is functional, cell-based.
In series [10] the target is T1, Lysine-specific histone demethylase 1A. The experiment in a line: Inhibition of LSD1 (unknown origin).
For series [11], the system named is MM1.S. The experiment in a line: Antitumour activity against human MM1.S cells xenografted in SCID mouse assessed as tumour growth inhibition at 50 mg/kg, […] for 12 days relative to control. In kind it is functional. Particulars: 288 h, time 12 day, read-out: TGI.
A short description of series [12]: Stability in human liver microsomes assessed as parent compound remaining measured after 30 mins. Format: ADME, Microsome. Particulars: liver microsomes, read-out: Stabilty. A general note: Liver microsomes are a subcellular fraction often used to study metabolism.

Active and inactive are the calls of the source. The calls are words filed in the database; no cut-off is given here.

Histone deacetylase 1 (Homo sapiens), sequence (Q13547 whole entry): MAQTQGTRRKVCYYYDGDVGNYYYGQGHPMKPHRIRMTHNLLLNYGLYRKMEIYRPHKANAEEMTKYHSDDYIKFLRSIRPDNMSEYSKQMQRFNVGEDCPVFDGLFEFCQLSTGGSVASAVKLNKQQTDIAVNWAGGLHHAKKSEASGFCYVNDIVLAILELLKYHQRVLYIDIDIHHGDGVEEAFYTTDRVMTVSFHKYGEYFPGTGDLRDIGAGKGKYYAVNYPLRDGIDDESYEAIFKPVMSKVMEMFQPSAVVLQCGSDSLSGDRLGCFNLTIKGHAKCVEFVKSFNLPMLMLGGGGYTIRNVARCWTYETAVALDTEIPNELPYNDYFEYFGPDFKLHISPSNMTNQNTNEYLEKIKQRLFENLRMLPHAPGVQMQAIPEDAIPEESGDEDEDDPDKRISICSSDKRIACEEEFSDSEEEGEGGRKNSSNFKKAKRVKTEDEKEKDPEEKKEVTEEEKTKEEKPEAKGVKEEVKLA

Consider `O=C(NO)c1ccc(CCCN2CCC(CN[C@H]3C[C@@H]3c3ccccc3)CC2)cc1` (racemic), for which the inhibition entry in series [1], in series [3], in series [4], in [5], in series [6] and in series [7] was “Active” in each case. Further, in series [2], the inhibition came to 18.4%.

Consider `O=C(CCCCCCNC(=O)c1cnc(N(c2ccccc2)c2ccccc2)nc1)NO` [RICOLINOSTAT], for which the remaining at 0.5 h in series [8] turned out to be 77%; in [12] it was 93%. Further, the concentration for a half-maximal effect (EC50) with MM1.S [9] was 0.85 nM. Further, the IC50 result in series [10] is reported as “Not Active”. In addition, the inhibition in vivo at 50 mg/kg with MM1.S [11] came out at 36%.

A word on the inhibition: it is the percentage by which the read-out fell short of the control. In general, EC50 refers to the concentration that produces a half-maximal response.
